Results published in patent publication US20200181212A1 (priority 2014, published 2020).

Assay: physchem
Conditions: cells or culture medium

`CC(C)C[C@@H]1NC(=O)[C@H](CO)NC(=O)[C@@H]2CSSC[C@@H]3NC(=O)[C@H]([C@@H](C)O)NC(=O)[C@H](C)NC(=O)[C@H](CC(=O)O)NC(=O)[C@H](CC(=O)O)NC(=O)[C@H](CSSC[C@H](NC(=O)[C@H](Cc4ccc(O)cc4)NC(=O)[C@@H](N)CCC(N)=O)C(=O)N[C@@H](C(C)C)C(=O)N4CCC[C@H]4C(=O)N[C@@H](C(C)C)C(=O)N[C@@H](CC(=O)O)C(=O)N[C@@H](CCC(N)=O)C(=O)N4CCC[C@H]4C(=O)N2)NC(=O)[C@H](CSSC[C@@H](C(=O)N[C@@H](CCCNC(=N)N)C(=O)N[C@@H](C)C(=O)O)NC(=O)[C@H](Cc2ccc(O)cc2)NC(=O)[C@H](Cc2ccc(O)cc2)NC(=O)[C@H](C(C)C)NC(=O)[C@H]([C@@H](C)O)NC(=O)[C@H](Cc2c[nH]cn2)NC(=O)CNC(=O)[C@H](CC(N)=O)NC(=O)[C@H](CCC(=O)O)NC(=O)[C@H](CC(N)=O)NC(=O)[C@H](CCCNC(=N)N)NC(=O)[C@H](CCC(=O)O)NC(=O)[C@H](CCC(N)=O)NC(=O)[C@H]([C@@H](C)O)NC3=O)NC(=O)[C@@H]2CCCN2C(=O)[C@H](CCC(N)=O)NC(=O)[C@H]([C@@H](C)O)NC(=O)[C@H](CC(N)=O)NC1=O` (single isomer, unassigned) [Peak 1] showed a remaining at 24 h of 5.6%.
